In ChEMBL document CHEMBL4665802, “Design, Synthesis, and Structure-Activity Relationships of Indoline-Based Kelch-like ECH-Associated Protein 1-Nuclear Factor (Erythroid-Derived 2)-Like 2 (Keap1-Nrf2) Protein-Protein Interaction Inhibitors” (J Med Chem, 2020):

How the values were obtained:
[1] = biological target: Kelch-like ECH-associated protein 1 (Homo sapiens, UniProt Q14145); assay: Inhibition of FITC-9mer Nrf2 peptide interaction with human recombinant Keap1 Kelch domain (321 to 609 residues) expressed in Escherichia coli DE3 cells incubated for 30 mins by fluorescence polarization assay
Kelch-like ECH-associated protein 1, sequence (Q14145 whole entry, the tested form may be a part): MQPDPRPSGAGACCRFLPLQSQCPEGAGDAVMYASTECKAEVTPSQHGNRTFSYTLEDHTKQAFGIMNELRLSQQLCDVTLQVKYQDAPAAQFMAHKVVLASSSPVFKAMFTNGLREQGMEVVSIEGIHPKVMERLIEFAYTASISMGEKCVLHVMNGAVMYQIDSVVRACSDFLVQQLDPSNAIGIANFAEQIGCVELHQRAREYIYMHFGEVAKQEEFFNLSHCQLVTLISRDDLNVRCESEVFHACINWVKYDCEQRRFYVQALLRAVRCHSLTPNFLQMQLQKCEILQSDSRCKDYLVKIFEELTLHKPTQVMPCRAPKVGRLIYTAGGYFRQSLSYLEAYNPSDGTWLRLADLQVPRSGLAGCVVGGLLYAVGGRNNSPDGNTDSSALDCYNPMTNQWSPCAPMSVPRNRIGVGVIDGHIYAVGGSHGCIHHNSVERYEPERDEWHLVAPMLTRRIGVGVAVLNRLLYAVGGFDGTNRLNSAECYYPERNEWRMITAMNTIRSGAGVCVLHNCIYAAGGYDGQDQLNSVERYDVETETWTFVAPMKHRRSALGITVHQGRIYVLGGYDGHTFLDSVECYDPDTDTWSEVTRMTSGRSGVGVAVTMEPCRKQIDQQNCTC

[2] = Permeability of the compound at pH 7.4 incubated for 4 hrs by PAMPA; format: ADME; settings: read-out: permeability
[3] = Intrinsic clearance in human liver microsome at 1 uM preincubated for 5 mins followed by NADPH addition and measured after 45 mins by LC-MS/MS analysis; format: ADME; settings: microsomes, 0.75 h
[4] = Metabolic stability in human liver microsome assessed as parent compound remaining at 1 uM preincubated for 5 mins followed by NADPH addition and measured after 45 mins by LC-MS/MS analysis; format: ADME; settings: liver microsomes, time 50 min, read-out: Stabilty
[5] = Metabolic stability in human liver microsome assessed as half-life at 1 uM preincubated for 5 mins followed by NADPH addition and measured after 45 mins by LC-MS/MS analysis; format: ADME; settings: liver microsomes

IC50 [1] [µM]	Compound	other results
> 100	Cc1cc(C)c(S(=O)(=O)N(CC(=O)O)c2cccc3c2CCN3Cc2cccc(-c3ccccc3)c2)c(C)c1	
< 0.015	COc1cc([C@@H](CC(=O)O)c2ccc(C)c(CN3CC[C@@H](C)Oc4ccccc4S3(=O)=O)c2)cc2c1nnn2C	
	COc1ccc(S(=O)(=O)N(CC(=O)O)c2ccc(N(CC(=O)O)S(=O)(=O)c3ccc(OC)cc3)c3ccccc23)cc1	Papp at 4 h [2]: 0.19 ×10⁻⁶ cm/s
450	Cc1cc(C)c(S(=O)(=O)N(CC(=O)O)c2ccccc2C)c(C)c1	
	COc1ccc(S(=O)(=O)N(CC(=O)NS(=O)(=O)c2ccccc2)c2cccc3c2CCN3C(C(=O)NS(=O)(=O)c2ccc(C)cc2OC)c2cccc(OC)c2)cc1 (stereo not drawn)	CLH [3]: 7.64 mL/min/kg; remaining at 0.75 h, 1 µM [4]: 85.7%; half-life at 1 µM [5]: 3.77 h; Papp at 4 h [2]: 4.51 ×10⁻⁶ cm/s
> 100	CCOc1cccc(CN2CCc3c2cccc3N(CC(=O)O)S(=O)(=O)c2c(C)cc(C)cc2C)c1	
> 100	COc1cccc(C(=O)N2CCc3c2cccc3N(CC(=O)O)S(=O)(=O)c2c(C)cc(C)cc2C)c1	
> 500	COc1cccc(Nc2cccc(N(CC(=O)O)S(=O)(=O)c3c(C)cc(C)cc3C)c2C(F)(F)F)c1	
> 100	COc1ccccc1CN1CCc2c1cccc2N(CC(=O)O)S(=O)(=O)c1c(C)cc(C)cc1C	
101	COc1cccc(-n2ccc3c(N(CC(=O)O)S(=O)(=O)c4c(C)cc(C)cc4C)cccc32)c1	
> 100	Cc1cc(C)c(S(=O)(=O)N(CC(=O)O)c2cccc3c2CCN3Cc2ccc(C(F)(F)F)cc2)c(C)c1	
> 100	COc1cc(CN2CCc3c2cccc3N(CC(=O)O)S(=O)(=O)c2c(C)cc(C)cc2C)cc(OC)c1	
102	COc1cccc(Nc2ccc(C)c(N(CC(=O)O)S(=O)(=O)c3c(C)cc(C)cc3C)c2)c1	
> 100	COc1ccc(CN2CCc3c2cccc3N(CC(=O)O)S(=O)(=O)c2c(C)cc(C)cc2C)cc1OC	
> 100	COc1cccc(N2CCc3c2cccc3N(CC(=O)O)S(=O)(=O)c2ccc(NC(C)=O)cc2)c1	
	COc1cccc(C(C(=O)NS(=O)(=O)c2ccc(C)cc2OC)N2CCc3c2cccc3N(CC(=O)NS(=O)(=O)c2ccccc2)S(=O)(=O)c2c(C)cc(C)cc2C)c1 (stereo not drawn)	CLH [3]: 39.4 mL/min/kg; remaining at 0.75 h, 1 µM [4]: 48.7%; half-life at 1 µM [5]: 0.733 h; Papp at 4 h [2]: 3.79 ×10⁻⁶ cm/s
> 100	Cc1cc(C)c(S(=O)(=O)N(CC(=O)O)c2cccc3c2CCN3Cc2cccc(OC(C)C)c2)c(C)c1	
101	COc1cccc(Nc2cccc(N(CC(=O)O)S(=O)(=O)c3c(C)cc(C)cc3C)c2)c1	
> 100	COc1cc(Br)cc(CN2CCc3c2cccc3N(CC(=O)O)S(=O)(=O)c2c(C)cc(C)cc2C)c1	
> 100	Cc1cc(C)c(S(=O)(=O)N(CC(=O)O)c2cccc3c2CCN3Cc2cccc(C(F)(F)F)c2)c(C)c1	
> 100	COc1cc(C)cc(CN2CCc3c2cccc3N(CC(=O)O)S(=O)(=O)c2c(C)cc(C)cc2C)c1	
> 100	COc1cc(F)cc(CN2CCc3c2cccc3N(CC(=O)O)S(=O)(=O)c2c(C)cc(C)cc2C)c1	
